PMC10893053 (Pharmaceutics, 2024)
In brackets after ≈: the same amount, converted by molar mass. Several values for one entry are separate records, joined by “and”; a condition that tells them apart may be missing. Equal values may be shown once. Read-outs that look alike come from different tables or passages of the source.

Legend:
[1] = cited from earlier work
[2] = design: method as in PMID 21415539; settings: water to 1-octanol; pH 7.4 of the aqueous phase; cited from earlier work
[3] = logP, partition of CBZ from water to 1-octanol; format: physicochemical; settings: 1-octanol/water, pH 7.4; after conversion from the molar units to the mass units
[4] = Equilibrium solubility of CBZ, shake-flask method, HPLC; format: physicochemical; settings: phosphate buffer, aqueous buffer, thermodynamic from solid; pure buffer pH 6.8; 37.0±0.1 °C
Procedure: The experimental temperature of 37 °C corresponded to the standard temperature of a healthy human. […] The vials were continuously shaken in an air thermostat to achieve the equilibrium. After this, the suspensions were settled during no less than 6 h to avoid supersaturation [33]. […] The experimental results are presented as an average of at least three replicated experiments.
The samples of the solutions were analyzed via HPLC using the Shimadzu Prominence model LC-20 AD, equipped with a PDA detector and a C-18 column Luna® (150 mm × 4.6 mm i.d., 5 μm particle size, and 100 Å pore size) (Albert-Hahn-Str. 6-10, Duisburg, Germany). The column temperature was 40 °C. Eluent acetonitrile:water at a ratio of 40:60 v/v was used. An isocratic regime at a flow rate of 1 mL·min^−1 was applied. The injection volume was 20 μL.

[5] = Cyclodextrin (SBE-β-CD)/buffer apparent partition coefficient of CBZ; format: physicochemical; settings: buffer pH 6.8, 37 °C
Procedure: (§1) Additionally, for the sake of the reliable comparison of the partition within the micellar and cyclodextrin systems, the concentrations of the excipient (F127 or SBE-β-CD) on the X-axis were expressed in kg∙L^−1. From the results of the partition coefficients determinations, the thermodynamics of solubilization by F127 and SBE-β-CD was disclosed by the excess free Gibbs energy ( ΔGS37°C ) evaluation, using the equation:(12) ΔGS37°C=−RT·lnKexcipient/buf
(§2) In the case of cyclodextrins, the nonspecific interaction between the solute and the cavity of cyclodextrin takes place, and the solubilization process may be attributed to the partition of solutes from the aqueous buffer into the cyclodextrin cavity. In this work, the partition from the micellar pseudo phase (F127) to the aqueous buffer pH 6.8, as well as from SBE-β-CD to the buffer was studied using the plots of the linear dependences (Figure S4), plotted according to Equations (10) and (11). The calculations were conducted in two variants.

[6] = In vitro permeability, Franz diffusion cell, polydimethylsiloxane–polycarbonate membrane; format: in vitro ADME; settings: 37 °C; for C0free (free CBZ concentration in the donor solution, C0free=C0·ffree): PDS membrane experiment; for Papp at 5 h: pH 6.8, PDS membrane
Procedure: (§3) The apparent permeability coefficients were measured at 37 °C with the help of a vertical-type Franz diffusion cell (PermeGear, Inc., Hellertown, PA, USA). The experimental setup was the same as it was described in our previous study, where the excess amount of the investigated substance was placed in glass cups with ground-in lids. The required volume of buffer pH 6.8 without and with a predetermined concentration of the excipient (F127 or SBE-β-CD in the present study) was added, and the suspension was mixed overnight and filtered to obtain a clear solution. The concentration of this solution was determined and used for the further calculation of the permeability coefficient. […] The membrane was mounted between the donor and receptor chambers of the Franz cell. The effective surface area of the membrane was 0.785 cm^2. Each experiment lasted 5 h. The donor solution was permanently mixing with a magnetic stirrer at a constant rate. The aliquots of the receptor solution (0.5 mL) were withdrawn every 30 min and promptly replaced with the same volume of the fresh buffer.
(§4) The apparent permeability coefficients were taken as the average values of no less than three replicas. […]
(§5) The authors underlined that when different excipients, such as cyclodextrins or micelle-forming polymers, are used, it is necessary to obtain “true” permeability values by a correction of permeability coefficients for the free drug concentration. In this study, the free drug concentration in the presence of F127 and SBE-β-CD was assessed indirectly through the equilibrium solubility experiments at all the excipient concentrations (Table 2).

[7] = CBZ/F127 association constant (Ka) from phase solubility diagram; format: physicochemical; settings: buffer pH 6.8, 37 °C
Text: To this end, in order to assess the concentration of F127 in the micellar form, the difference between the total F127 (CF127) concentration and the CMC was used.
The CMC value of F127 (Section 3.1) was used to calculate F127 micellar concentrations as the differences between the total CF127 and the CMC.

[8] = In vitro permeability, Franz diffusion cell, regenerated cellulose membrane; format: in vitro ADME; settings: 37 °C; for C0free (free CBZ concentration in the donor solution, C0free=C0·ffree): RC membrane experiment; for Papp at 5 h: pH 6.8, RC membrane
Procedure: as §3, §4, §5

[9] = Stability constant of CBZ/SBE-β-CD complex (Kc) from phase solubility diagram; format: physicochemical; settings: buffer pH 6.8, 37 °C
[10] = Micelle (F127)/buffer apparent partition coefficient of CBZ; format: physicochemical; settings: buffer pH 6.8, 37 °C
Procedure: as §1, §2

[11] = design: method as in PMID 19403275; settings: 1.33 mmol·L^−1 (1%) F127 solution; 37 °C; cited from earlier work
[12] = Viscosity of F127 and SBE-β-CD solutions, Vibro Viscometer; format: physicochemical; settings: 37 °C
Procedure: The viscosity of F127 and SBE-β-CD solutions at concentrations used for the permeability experiments (1.0 w/v%, 2.0 w/v%, and 3.0 w/v%) was measured with the help of SV series Vibro Viscometer (A&D Company Ltd., Tokyo, Japan) with a high accuracy of 1% (standard deviation).
In turn, with SBE-β-CD in the donor solution, the Pappcalc values are somewhat lower with RC and higher with PDS membranes than the experimental Papp values. These findings allow the proposal of additional mechanisms that influence permeability, going beyond the model approach which primarily relied on solubility for quantitatively predicting permeability. The underestimation of the permeability through the PDS membrane with SBE-β-CD can probably be attributed to the specific interaction of anionic cyclodextrin with PDS, as it was underlined above. In addition, as it was reported in [57], decreased diffusivity can be attributed to the increased viscosity of the donor solution upon the acceleration of the excipient concentration. […] Fischer et al. proposed that just a change in the viscosity of the aqueous donor compartment might be the reason of the decreased permeability of carboxyfluorescein in the non-ionic surfactant poloxamer 188. To support the obtained results, the dynamic viscosity […] of the dissolution medium was measured at the experimental temperature of 37 °C and listed in Table S4. As expected, the viscosity was increased both with F127 and SBE-β-CD in solution.

[13] = excipient concentration expressed in kg∙L^−1
[14] = excipient concentration expressed in molarity
[15] = F127 1.33 mmol·L^−1, buffer pH 6.8, read-out: Papp (apparent permeability coefficient)
[16] = F127 1.83 mmol·L^−1, buffer pH 6.8, read-out: Papp (apparent permeability coefficient)
[17] = F127 2.30 mmol·L^−1, buffer pH 6.8, read-out: Papp (apparent permeability coefficient)
[18] = SBE-β-CD 6.89 mmol·L^−1, buffer pH 6.8, read-out: Papp (apparent permeability coefficient)
[19] = SBE-β-CD 13.78 mmol·L^−1, buffer pH 6.8, read-out: Papp (apparent permeability coefficient)
[20] = SBE-β-CD 20.67 mmol·L^−1, buffer pH 6.8, read-out: Papp (apparent permeability coefficient)
[21] = pure buffer pH 6.8 (0 mmol·L^−1 excipient), read-out: Pabs (absolute permeability coefficient, Pabs=J/C0free)
[22] = pure buffer pH 6.8 (0 mmol·L^−1 excipient), read-out: Papp (apparent permeability coefficient)
[23] = expressed per mass of excipient

Compound: NC(=O)N1c2ccccc2C=Cc2ccccc21 [CBZ, carbamazepine]
- Stability constant of CBZ with SBE-β-CD ([1]; unbuffered double distilled water, 30 °C, ref 48 Jain et al.): 498.04 M⁻¹
- Stability constant of CBZ with SBE-β-CD ([1]; undefined pH and temperature, ref 49 Smith et al.): 1035 M⁻¹
- P (partition coefficient water/1-octanol) [2]: 380.19
- logP [3]: 3.47
- solubility thermodynamic [4]: 830 µM (≈ 196 µg/mL)
- Partition coefficient KSBE-β-CD/buf [5, 13]: 205.11 (±0.51)
- Partition coefficient KSBE-β-CD/buf [5, 14]: 297.67 (±0.75)
- C0free (free CBZ concentration in the donor solution, C0free=C0·ffree) ([6]; F127 1.33 mmol·L^−1): 464 µM
- C0free (free CBZ concentration in the donor solution, C0free=C0·ffree) ([6]; F127 1.83 mmol·L^−1): 378 µM
- C0free (free CBZ concentration in the donor solution, C0free=C0·ffree) ([6]; F127 2.30 mmol·L^−1): 312 µM
- C0free (free CBZ concentration in the donor solution, C0free=C0·ffree) ([6]; SBE-β-CD 6.89 mmol·L^−1): 440 µM
- C0free (free CBZ concentration in the donor solution, C0free=C0·ffree) ([6]; SBE-β-CD 13.78 mmol·L^−1): 514 µM
- C0free (free CBZ concentration in the donor solution, C0free=C0·ffree) ([6]; SBE-β-CD 20.67 mmol·L^−1): 500 µM
- Papp at 5 h [6, 15]: 0.286 ×10⁻⁶ cm/s
- Papp at 5 h [6, 16]: 0.253 ×10⁻⁶ cm/s
- Papp at 5 h [6, 17]: 0.214 ×10⁻⁶ cm/s
- Papp at 5 h [6, 18]: 0.127 ×10⁻⁶ cm/s
- Papp at 5 h [6, 19]: 0.0796 ×10⁻⁶ cm/s
- Papp at 5 h [6, 20]: 0.0565 ×10⁻⁶ cm/s
- Papp at 5 h [6, 21]: 0.567 ×10⁻⁶ cm/s
- Papp at 5 h [6, 22]: 0.567 ×10⁻⁶ cm/s
- CBZ/F127 micellar association constant (Ka) [7]: 2374.2 (±118.7) M^−1
- CBZ/F127 micellar association constant (Ka) [7, 23]: 65.5 (±3.27) L∙kg^−1
- C0free (free CBZ concentration in the donor solution, C0free=C0·ffree) ([8]; F127 1.33 mmol·L^−1): 473 µM
- C0free (free CBZ concentration in the donor solution, C0free=C0·ffree) ([8]; F127 1.83 mmol·L^−1): 377 µM
- C0free (free CBZ concentration in the donor solution, C0free=C0·ffree) ([8]; F127 2.30 mmol·L^−1): 473 µM
- C0free (free CBZ concentration in the donor solution, C0free=C0·ffree) ([8]; SBE-β-CD 6.89 mmol·L^−1): 446 µM
- C0free (free CBZ concentration in the donor solution, C0free=C0·ffree) ([8]; SBE-β-CD 13.78 mmol·L^−1): 388 µM
- C0free (free CBZ concentration in the donor solution, C0free=C0·ffree) ([8]; SBE-β-CD 20.67 mmol·L^−1): 559 µM
- Papp at 5 h [8, 15]: 32.2 ×10⁻⁶ cm/s
- Papp at 5 h [8, 16]: 26.6 ×10⁻⁶ cm/s
- Papp at 5 h [8, 17]: 20.3 ×10⁻⁶ cm/s
- Papp at 5 h [8, 18]: 20.5 ×10⁻⁶ cm/s
- Papp at 5 h [8, 19]: 13.4 ×10⁻⁶ cm/s
- Papp at 5 h [8, 20]: 12.4 ×10⁻⁶ cm/s
- Papp at 5 h [8, 21]: 55.5 ×10⁻⁶ cm/s
- Papp at 5 h [8, 22]: 55.5 ×10⁻⁶ cm/s
- Apparent stability constant of CBZ/SBE-β-CD complex (Kc) [9]: 395.9 (±15.8) M^−1 and 395.9 M^−1
- Apparent stability constant of CBZ/SBE-β-CD complex (Kc) [9, 23]: 247.5 (±5.23) L∙kg^−1
- Partition coefficient KF127/buf [10, 13]: 58.54 (±0.86)
- Partition coefficient KF127/buf [10, 14]: 737.63 (±10.90)
- Solubility of CBZ [11]: 1430 µM

Compound: sulfobutylether-β-cyclodextrin [SBE-β-CD]
- Viscosity ([12]; SBE-β-CD 6.89 mmol·L-1 donor solution): 0.72 mPa·s
- Viscosity ([12]; SBE-β-CD 13.78 mmol·L-1 donor solution): 0.75 mPa·s
- Viscosity ([12]; SBE-β-CD 20.67 mmol·L-1 donor solution): 0.8 mPa·s
